Assay results as given in patent publication US20250339569A1, “CARBONIC ANHYDRASE IX LIGANDS” (priority 2021, published 2025).
Read-outs that look alike come from different tables or passages of the source. Starred links: 1 amine or outer side, 2 acyl side, 3 side chain; linkers in the order of their positions; H or OH if unused. Positions of bridges follow the written chain, without caps; N, C: chain ends. Non-standard residues stand in square brackets, D forms with d. Residues, ends and D or L forms follow the SMILES beside them. *: point of attachment. X3 = O=C(O)CN1CCN(CC(=O)O)CCN(CC(=O)NCCCOCCOCCOCCCN*)CCN(CC(=O)O)CC1; DOTA = O=C(O)CN1CCN(CC(=O)O)CCN(CC(=O)*)CCN(CC(=O)O)CC1; Phe(3,4-Cl2) = N[C@@H](Cc1ccc(Cl)c(Cl)c1)C(=O)O; Phe(4-NH2) = Nc1ccc(C[C@H](N)C(=O)O)cc1; mXylylene = c1cc(C[*:1])cc(C[*:2])c1; X46 = NS(=O)(=O)c1c[nH]c(C(=O)*)c1; X2 = O=C(CN1CCC(N[*:1])CC1)[*:2]; X52 = NS(=O)(=O)c1cnn(CC(=O)*)c1; X65 = NS(=O)(=O)c1ccc(C(=O)*)cn1; X1 = O=C(CN1CCN([*:1])CC1)[*:2]; Suc = O=C(CCC(=O)[*:2])[*:1]; dNMeA = CN[C@H](C)C(=O)O; Dap = NC[C@H](N)C(=O)O; Sar = CNCC(=O)O

Experiments:
[1] = molecular target: T1, CAIX-expressing human HT-29 colorectal cancer cells (Homo sapiens, UniProt Q16790); test: FACS binding assay (IC50 determination, competition with tracer 3BP-2776 or 3BP-4149); settings: 4° C., 1 hour, read-out: pIC50 category (activity) (converted)
T1 construct: CAIX-expressing human HT-29 colorectal cancer cells; host or cells: HT-29 human colorectal cancer cells
How it was run: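 HT-29 cells in FACS buffer (PBS, 1% FCS) at 500.000 cells/ml were exposed to compounds competing with a labelled tracer, with biotinylated compounds detected by 1 μg/mL APC-streptavidin for 30 min on ice. APC/Cy5 median fluorescence was read by flow cytometry and IC50 derived by 4PL fit.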

[2] = molecular target: T2, human carbonic anhydrase IX (hCAIX-Fc) (Homo sapiens, UniProt Q16790); test: Surface plasmon resonance assay with hCAIX-Fc; type: binding; settings: 25° C.; for t1/2 category (activity): SPR dissociation half-life, hCAIX-Fc; for Kd: SPR, hCAIX-Fc captured, read-out: pKD category (activity) (converted)
T2 construct: purchased SinoBliological (Sino Biological) 10107-H02H
Procedure: Surface plasmon resonance (SPR) studies were performed using a Biacore™ T200 SPR system (GE Healthcare Life Sciences). Briefly, polarized light is directed towards a gold-labeled sensor surface, and minimum intensity reflected light is detected. The angle of reflected light changes as molecules bind and dissociate.
Fc-fusion protein of human carbonic anhydrase IX (hCAIX-Fc, SinoBliological, Cat #10107-H02H) was captured on a Fc-capture chip (Biacore™ CM5 sensor chip coated with ˜300 RU of an Fc-binding peptide). Recombinant carbonic anydrase was diluted in Running Buffer (PBST, 0.1% DMSO) to a final concentration 100 or 200 nM and than flushed over the Fc-capture chip to immobilized ˜1000 RUs.
Stock solutions of test compounds were prepared by dissolving each compound in DMSO. DMSO stock solution were diluted 1:1000 in Running Buffer without DMSO. Further sequencial dilutions were made with Running Buffer containing 0.1% DMSO. SPR binding analyses were performed in Single Cycle Kinetic (SCK) mode at 25° C. Flow cell coated with the Fc-binding peptide only served as reference flowcell. After each SCK run, carbonic andydrase IX was removed with 10 mM glycine buffer, pH 1.5.
In between every three SCK measurements, a blank run with Running Buffer instead of test compound was included to correct for baseline drifts (double blanking methods).
Table 11 describes the protocol steps for Fc-fusion target capturing and assessment of the binding kinetics.
For each test compound, SPR raw data in the form of resonance units (RU) were plotted as sensorgrams using the Biacore™ T200 control software. The signal from the blank sensorgram was subtracted from that of the test compound sensorgram (blank corrected). The blank corrected sensorgram was corrected for baseline drift by subtracting the sensorgram of a SCK run without the test compound (running buffer only). The association rate (kon), dissociation rate (koff), dissociation constant (KD), and t1/2 were calculated from Blank-normalized SPR data using the 1:1 Langmuir binding model from the Biacore™ T200 evaluation software. Raw data and fit results were imported as text files in IDBS. The pKD value (negative decadic logarithm of dissociation constant) was calculated in the IDBS excel template.

[3] = FACS competition on HT-29 cells, Tracer ID 3BP-2776 (10 nM, biotin-labeled)
[4] = FACS binding assay, HT-29 cells, competition with tracer 3BP-4149 (3 nM, Cy5-labeled)
[5] = FACS binding assay, HT-29 cells, competition with tracer 3BP-2776 (10 nM, biotin-labeled)

SMILES	IC50 [1, 3] [nM]	t1/2 category (activity) [2]	Kd [2] [nM]	IC50 [1, 4] [nM]	IC50 [1, 5] [nM]
CC(C)C[C@@H]1NC(=O)[C@H](Cc2c[nH]c3ccccc23)NC(=O)[C@H](CC(=O)O)NC(=O)CN(C)C(=O)[C@H](CCC(=O)O)NC(=O)[C@@H](NC(=O)[C@H](Cc2ccc(O)cc2)NC(=O)[C@@H](NC(=O)CCC(=O)NCCCOCCOCCOCCCNC(=O)CN2CCN(CC(=O)O)CCN(CC(=O)O)CCN(CC(=O)O)CC2)C(C)C)CSCc2cccc(c2)CSC[C@@H](C(N)=O)NC(=O)[C@H](CCC(N)=O)NC(=O)[C@H](Cc2c[nH]c3ccccc23)NC(=O)[C@H]([C@@H](C)O)NC1=O [3BP-3271] ({X3-Suc}-VYCE[Sar]DWLTWQC-NH2; linker 3-12 via mXylylene)	< 10	C (t1/2 between 2.1 and 5.0 minutes)	< 10	–	–
CC(C)C[C@@H]1NC(=O)[C@H](Cc2c[nH]c3ccccc23)NC(=O)[C@H](CC(=O)O)NC(=O)CNC(=O)[C@H](CCC(=O)O)NC(=O)[C@@H](NC(=O)[C@H](Cc2ccc(O)cc2)NC(=O)[C@@H](NC(=O)CCC(=O)NCCCOCCOCCOCCCNC(=O)CN2CCN(CC(=O)O)CCN(CC(=O)O)CCN(CC(=O)O)CC2)C(C)C)CSCc2cccc(c2)CSC[C@@H](C(N)=O)NC(=O)[C@H](C)NC(=O)[C@H](Cc2c[nH]c3ccccc23)NC(=O)[C@H]([C@@H](C)O)NC1=O [3BP-3272] ({X3-Suc}-VYCEGDWLTWAC-NH2; linker 3-12 via mXylylene)	< 10	C (t1/2 between 2.1 and 5.0 minutes)	< 10	–	–
CC(C)C[C@@H]1NC(=O)[C@H](Cc2c[nH]c3ccccc23)NC(=O)[C@H](CC(=O)O)NC(=O)[C@@H](C)NC(=O)[C@H](CCC(=O)O)NC(=O)[C@@H](NC(=O)[C@H](Cc2ccc(O)cc2)NC(=O)[C@@H](NC(=O)CCC(=O)NCCCOCCOCCOCCCNC(=O)CN2CCN(CC(=O)O)CCN(CC(=O)O)CCN(CC(=O)O)CC2)C(C)C)CSCc2cccc(c2)CSC[C@@H](C(N)=O)NC(=O)[C@H](C)NC(=O)[C@H](Cc2c[nH]c3ccccc23)NC(=O)[C@H]([C@@H](C)O)NC1=O [3BP-3279] ({X3-Suc}-VYCE[dA]DWLTWAC-NH2; linker 3-12 via mXylylene)	< 10	B (t1/2 between 5.1 and 15.0 minutes)	< 10	–	–
CC(=O)N[C@H](C(=O)N[C@@H](Cc1ccc(O)cc1)C(=O)N[C@H]1CSCc2cccc(c2)CSC[C@@H](C(N)=O)NC(=O)[C@H](C)NC(=O)[C@H](Cc2c[nH]c3ccccc23)NC(=O)[C@H]([C@@H](C)O)NC(=O)[C@H](CC(C)C)NC(=O)[C@H](Cc2c[nH]c3ccccc23)NC(=O)[C@H](CC(=O)O)NC(=O)[C@@H](C)NC(=O)[C@H](CCC(=O)O)NC1=O)C(C)C [3BP-3280] (Ac-VYCE[dA]DWLTWAC-NH2; linker 3-12 via mXylylene)	< 10	B (t1/2 between 5.1 and 15.0 minutes)	< 10	–	–
CC(=O)N[C@H](C(=O)N[C@@H](Cc1ccc(O)cc1)C(=O)N[C@H]1CSCc2cccc(c2)CSC[C@@H](C(N)=O)NC(=O)[C@H](C)NC(=O)[C@H](Cc2c[nH]c3ccccc23)NC(=O)[C@H]([C@@H](C)O)NC(=O)[C@H](CC(C)C)NC(=O)[C@H](Cc2c[nH]c3ccccc23)NC(=O)[C@H](CC(=O)O)NC(=O)[C@@H](C)N(C)C(=O)[C@H](CCC(=O)O)NC1=O)C(C)C [3BP-3281] (Ac-VYCE[dNMeA]DWLTWAC-NH2; linker 3-12 via mXylylene)	< 10	–	< 10	–	–
CC(C)C[C@@H]1NC(=O)[C@H](Cc2c[nH]c3ccccc23)NC(=O)[C@H](CC(=O)O)NC(=O)CNC(=O)[C@H](CCC(=O)O)NC(=O)[C@@H](NC(=O)[C@H](Cc2ccc(O)cc2)NC(=O)[C@@H](NC(=O)CCC(=O)NCCCOCCOCCOCCCNC(=O)CN2CCN(CC(=O)O)CCN(CC(=O)O)CCN(CC(=O)O)CC2)C(C)C)CSCc2cccc(c2)CSC[C@@H](C(N)=O)NC(=O)[C@H](CCC(N)=O)NC(=O)[C@H](Cc2c[nH]c3ccccc23)NC(=O)[C@H]([C@@H](C)O)NC1=O [3BP-3328] ({X3-Suc}-VYCEGDWLTWQC-NH2; linker 3-12 via mXylylene)	–	–	< 10	–	–
CC(C)C[C@@H]1NC(=O)[C@H](Cc2ccc(Cl)c(Cl)c2)NC(=O)[C@H](CC(=O)O)NC(=O)[C@H]2CCCN2C(=O)[C@H](CCC(=O)O)NC(=O)[C@@H]2CSCc3cccc(c3)CSC[C@@H](C(N)=O)NC(=O)[C@H](CNC(=O)C[C@H](NC(=O)[C@@H](NC(=O)CN3CCC(NC(=O)CN4CCN(CC(=O)O)CCN(CC(=O)O)CCN(CC(=O)O)CC4)CC3)C(C)C)C(=O)N2)NC(=O)[C@H](Cc2c[nH]c3ccccc23)NC(=O)[C@H]([C@@H](C)O)NC1=O [3BP-4439] ({DOTA}-[X2]VDCE[dP]D[Phe(3,4-Cl2)]LTW[Dap]C-NH2; lactam 3-12; linker 4-13 via mXylylene)	–	B (t1/2 between 5.1 and 15.0 minutes)	< 10	–	–
CC(C)C[C@@H]1NC(=O)[C@H](Cc2ccc(NC(=O)c3ccc(S(N)(=O)=O)nc3)cc2)NC(=O)[C@H](CC(=O)O)NC(=O)[C@H]2CCCN2C(=O)[C@H](CCC(=O)O)NC(=O)[C@@H](NC(=O)[C@H](CCC(N)=O)NC(=O)CN2CCN(C(=O)CN3CCN(CC(=O)O)CCN(CC(=O)O)CCN(CC(=O)O)CC3)CC2)CSCc2cccc(c2)CSC[C@@H](C(N)=O)NC(=O)[C@H](CO)NC(=O)[C@H](Cc2c[nH]c3ccccc23)NC(=O)[C@H]([C@@H](C)O)NC1=O [3BP-4481] ({DOTA}-[X1]QCE[dP]D[Phe(4-NH2)](X65)LTWSC-NH2; linker 3-12 via mXylylene)	–	–	–	100 to 794	–
CC(C)C[C@@H]1NC(=O)[C@H](Cc2ccc(NC(=O)Cn3cc(S(N)(=O)=O)cn3)cc2)NC(=O)[C@H](CC(=O)O)NC(=O)[C@H]2CCCN2C(=O)[C@H](CCC(=O)O)NC(=O)[C@@H](NC(=O)[C@H](CCC(N)=O)NC(=O)CN2CCN(C(=O)CN3CCN(CC(=O)O)CCN(CC(=O)O)CCN(CC(=O)O)CC3)CC2)CSCc2cccc(c2)CSC[C@@H](C(N)=O)NC(=O)[C@H](CO)NC(=O)[C@H](Cc2c[nH]c3ccccc23)NC(=O)[C@H]([C@@H](C)O)NC1=O [3BP-4482] ({DOTA}-[X1]QCE[dP]D[Phe(4-NH2)](X52)LTWSC-NH2; linker 3-12 via mXylylene)	–	–	–	100 to 794	–
CC(C)C[C@@H]1NC(=O)[C@H](Cc2cccc(NC(=O)C3CCC(S(N)(=O)=O)CC3)c2)NC(=O)[C@H](CC(=O)O)NC(=O)[C@H]2CCCN2C(=O)[C@H](CCC(=O)O)NC(=O)[C@@H](NC(=O)[C@H](CCC(N)=O)NC(=O)CN2CCN(C(=O)CN3CCN(CC(=O)O)CCN(CC(=O)O)CCN(CC(=O)O)CC3)CC2)CSCc2cccc(c2)CSC[C@@H](C(N)=O)NC(=O)[C@H](CO)NC(=O)[C@H](Cc2c[nH]c3ccccc23)NC(=O)[C@H]([C@@H](C)O)NC1=O (stereo partly shown) [3BP-4787]	–	–	–	–	100 to 794
CC(C)C[C@@H]1NC(=O)[C@H](Cc2ccc(NC(=O)c3cc(S(N)(=O)=O)c[nH]3)cc2)NC(=O)[C@H](CC(=O)O)NC(=O)[C@H]2CCCN2C(=O)[C@H](CCC(=O)O)NC(=O)[C@@H](NC(=O)[C@H](CCC(N)=O)NC(=O)CN2CCN(C(=O)CN3CCN(CC(=O)O)CCN(CC(=O)O)CCN(CC(=O)O)CC3)CC2)CSCc2cccc(c2)CSC[C@@H](C(N)=O)NC(=O)[C@H](CO)NC(=O)[C@H](Cc2c[nH]c3ccccc23)NC(=O)[C@H]([C@@H](C)O)NC1=O [3BP-4814] ({DOTA}-[X1]QCE[dP]D[Phe(4-NH2)](X46)LTWSC-NH2; linker 3-12 via mXylylene)	–	–	–	–	100 to 794
CC(C)C[C@@H]1NC(=O)[C@H](Cc2cccc(NC(=O)Cn3cc(C(=O)NO)nn3)c2)NC(=O)[C@H](CC(=O)O)NC(=O)[C@H]2CCCN2C(=O)[C@H](CCC(=O)O)NC(=O)[C@@H](NC(=O)[C@H](CCC(N)=O)NC(=O)CN2CCN(C(=O)CN3CCN(CC(=O)O)CCN(CC(=O)O)CCN(CC(=O)O)CC3)CC2)CSCc2cccc(c2)CSC[C@@H](C(N)=O)NC(=O)[C@H](CO)NC(=O)[C@H](Cc2c[nH]c3ccccc23)NC(=O)[C@H]([C@@H](C)O)NC1=O [3BP-4847]	–	–	–	–	100 to 794
